Data as given in publication PMC10388363, “Novel 1,4-Dihydropyridines as Specific Binders and Activators of SIRT3 Impair Cell Viability and Clonogenicity and Downregulate Hypoxia-Induced Targets in Cancer Cells” (Journal of Medicinal Chemistry, 2023).

Assays:
Assay type in all cases: biochemical
human SIRT5 = target: T1, human SIRT5 (Homo sapiens, UniProt Q9NXA8); assay: PncA/GDH-coupled deacylation assay, SIRT5 activation (CPS1-succK537 substrate); settings: for effect on SIRT5: 10 μM compound; for SIRT5 activation: 100 μM compound
T1 construct: pET151D/Topo (Sirt3-114-380 and Sirt5-34-302); His tag (N, cleaved yes); made in house; host or cells: Escherichia coli
T1 sequence (Q9NXA8 34-302): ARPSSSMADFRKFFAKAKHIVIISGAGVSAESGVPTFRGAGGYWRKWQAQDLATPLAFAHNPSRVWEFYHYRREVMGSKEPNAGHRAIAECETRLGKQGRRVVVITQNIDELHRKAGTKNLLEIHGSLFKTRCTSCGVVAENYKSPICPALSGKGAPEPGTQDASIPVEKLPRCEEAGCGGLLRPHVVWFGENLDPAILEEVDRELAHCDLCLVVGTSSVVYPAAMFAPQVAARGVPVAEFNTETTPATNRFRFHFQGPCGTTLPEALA
Method: (§1) To avoid artifacts and other non-specific effects, instead of the “Fluor-de-Lys” (FdL) substrate, we used a PncA/GDH-coupled deacylation assay by measuring the NADPH oxidation to NADP^+ that relies on isoform-specific non-modified physiological acetyl or succinyl substrates [p53-acK381 for SIRT1, α-tubulin-[…] for SIRT2, acetyl-CoA synthetase 2 (ACS2)-acK642 for SIRT3, and CPS1-succK537 for SIRT5].[59] The assays were carried out using the 1,4-DHP derivatives 2a–n and 3a–d against SIRT3, including the prototype compounds 2 and 3 as positive controls.
(§2) N-terminally his-tagged human sirtuins were expressed in Escherichia coli using constructs in pET15b (Sirt1) or pET151D/Topo (Sirt3-114-380 and Sirt5-34-302).[4],[59],[61] Sirt2-43-356 was expressed from a modified pET19b containing a TEV protease cleavage site and an N-terminal SUMO-tag.[59],[79] Proteins were expressed and purified as described elsewhere.[59],[61],[79]−[81] In brief, proteins were expressed in E. coli, crude extracts were cleared by centrifugation, and the proteins were affinity purified using NiNTA beads.
(§3) Sirtuin deacylation activities were analyzed by using a coupled enzymatic assay as described in.[59],[82] For initial modulation screenings, substrate peptide specificity analysis, and compound titrations, 1.5 μM sirtuin was incubated with 50 μM substrate peptide and 100 μM NAD^+ in absence or presence of 10 μM, 100 μM or the indicated concentration of 1,4-DHP at a final DMSO concentration of 5%. For kinetic experiments, 1.5 μM sirtuin was incubated with saturating concentrations of either substrate peptide (0.4 mM) or NAD^+ (2 mM), with the second substrate’s concentration being varied in absence or presence of 200 μM 1,4-DHP at a final concentration of 5% DMSO. Potential 1,4-DHP effects on the coupled enzymes GDH and nicotinamidase were tested in control assays containing 50 μM NAM instead of the substrate peptide.

human SIRT1 = target: T2, human SIRT1 (Homo sapiens, UniProt Q96EB6); assay: PncA/GDH-coupled deacylation assay, SIRT1 activation (p53-acK381 substrate); settings: for effect on SIRT1: 10 μM compound; for SIRT1 activation: 100 μM compound
T2 construct: using constructs in pET15b (Sirt1); His tag (N, cleaved yes); made in house; host or cells: Escherichia coli
T2 sequence (Q96EB6 1-747): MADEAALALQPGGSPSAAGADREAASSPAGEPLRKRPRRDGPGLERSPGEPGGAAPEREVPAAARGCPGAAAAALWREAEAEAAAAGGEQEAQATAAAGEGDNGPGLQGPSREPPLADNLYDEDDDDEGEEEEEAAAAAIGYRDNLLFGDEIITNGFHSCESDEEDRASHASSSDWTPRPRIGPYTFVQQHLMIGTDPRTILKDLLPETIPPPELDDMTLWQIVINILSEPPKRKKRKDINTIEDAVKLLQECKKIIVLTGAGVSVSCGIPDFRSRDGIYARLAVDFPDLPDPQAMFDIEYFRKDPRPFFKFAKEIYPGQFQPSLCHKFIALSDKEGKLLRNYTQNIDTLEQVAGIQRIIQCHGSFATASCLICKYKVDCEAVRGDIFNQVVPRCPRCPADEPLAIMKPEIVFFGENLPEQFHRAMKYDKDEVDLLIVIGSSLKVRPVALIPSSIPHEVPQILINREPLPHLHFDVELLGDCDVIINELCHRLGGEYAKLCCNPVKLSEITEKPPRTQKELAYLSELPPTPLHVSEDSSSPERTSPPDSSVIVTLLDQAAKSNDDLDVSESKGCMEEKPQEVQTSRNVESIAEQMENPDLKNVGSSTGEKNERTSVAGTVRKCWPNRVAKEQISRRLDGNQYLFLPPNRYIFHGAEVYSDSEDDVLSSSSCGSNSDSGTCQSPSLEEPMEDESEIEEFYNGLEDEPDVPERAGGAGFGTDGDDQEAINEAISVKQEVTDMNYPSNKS
Method: as §1, §2, §3

human SIRT2 = target: T3, human SIRT2 (Homo sapiens, UniProt Q8IXJ6); assay: PncA/GDH-coupled deacylation assay, SIRT2 activation (α-tubulin-acK25 substrate); settings: for effect on SIRT2: 10 μM compound; for SIRT2 activation: 100 μM compound
T3 construct: Sirt2-43-356 was expressed from a modified pET19b; SUMO-tag (with TEV protease cleavage site) (N, cleaved yes); His tag (N, cleaved yes); made in house; host or cells: Escherichia coli
T3 sequence (Q8IXJ6 43-356): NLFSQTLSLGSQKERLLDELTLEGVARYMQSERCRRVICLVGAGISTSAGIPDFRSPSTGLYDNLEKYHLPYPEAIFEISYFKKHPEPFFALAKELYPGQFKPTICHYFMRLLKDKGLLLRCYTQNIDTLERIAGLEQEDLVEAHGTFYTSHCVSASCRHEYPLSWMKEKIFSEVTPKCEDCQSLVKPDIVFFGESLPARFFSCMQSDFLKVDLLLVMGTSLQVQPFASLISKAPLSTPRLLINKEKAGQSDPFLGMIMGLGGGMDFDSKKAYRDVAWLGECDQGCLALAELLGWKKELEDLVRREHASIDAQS
Method: as §1, §2, §3

effect on SIRT5 (human SIRT5)	SIRT5 activation (human SIRT5) [%]	effect on SIRT1 (human SIRT1)	SIRT1 activation (human SIRT1) [%]	effect on SIRT2 (human SIRT2)	SIRT2 activation (human SIRT2) [%]	Structure (SMILES)
negligible effects	160	negligible effects	156	negligible effects	136	CCOC(=O)C1=CN(C(=O)c2ccc(OC)c(OC)c2)C=C(C(=O)OCC)C1c1ccccc1 [Compound 3c, Diethyl 1-(3,4-dimethoxybenzoyl)-4-phenyl-1,4-dihydropyridine-3,5-dicarboxylate]
negligible effects	144	negligible effects	164	negligible effects	130	CCOC(=O)C1=CN(C(=O)c2cccc(OC)c2)C=C(C(=O)OCC)C1c1ccccc1 [Compound 3a, Diethyl 1-(3-methoxybenzoyl)-4-phenyl-1,4-dihydropyridine-3,5-dicarboxylate]

Structure (SMILES)	effect on SIRT5 (human SIRT5)	SIRT5 activation (human SIRT5) [%]	effect on SIRT1 (human SIRT1)	SIRT1 activation (human SIRT1) [%]	effect on SIRT2 (human SIRT2)	SIRT2 activation (human SIRT2) [%]
CCOC(=O)C1=CN(C(=O)c2cc(OC)cc(OC)c2)C=C(C(=O)OCC)C1c1ccccc1 [Compound 3d, Diethyl 1-(3,5-dimethoxybenzoyl)-4-phenyl-1,4-dihydropyridine-3,5-dicarboxylate]	negligible effects		negligible effects	130	negligible effects	
